Measurements published in patent US9612237B2, “Ritalinic acid immunoassay” (Randox Laboratories Limited, priority 2013, dated 2017).
≈ marks a conversion by molar mass, not a printed value. Where a name gives a salt, the structure may show the parent alone.

Columns and labels:
[1] = test system: antibodies of the invention (antisera generated in response to immunogen of Example 5); assay: Competitive chemiluminescent biochip immunoassay, antiserum raised against immunogen of Example 5, HRP conjugate of Example 6; assay type: binding, sheep; conditions: for No measurable CR at given concentration: value is the concentration at which no cross-reactivity was exhibited; for Cross-reactivity / IC50: biochip; for Cross-reactivity: based on 100% specificity to RA; for IC50: calibrator concentration which produces 50% B/B0
[2] = test system: antisera generated in response to immunogen of Example 11; assay: Competitive chemiluminescent biochip immunoassay, antisera raised against immunogen of Example 11, conjugate of Example 12; assay type: binding, sheep; conditions: for IC50 / % cross reactivity: biochip; for % cross reactivity: relative to methylphenidate = 100; for Concentration exhibiting no cross-reactivity: value is the concentration at which no cross-reactivity was exhibited
[3] = test system: Abcam polyclonal sheep antibody to MPH; conditions: Abcam antibody raised using MPH-BTG as the immunogen; cited from earlier work
[4] = test system: antibodies of the invention (antisera generated in response to immunogen of Example 5); assay: ELISA, antiserum raised against immunogen of Example 5, HRP conjugate of Example 6; assay type: binding, sheep; conditions: for Ave OD: absorbance at 450 nm; for % CR: relative to ritalinic acid = 100
Protocol: Immunogen (2 mg) from Examples 5 or 11 was prepared in PBS, mixed at a ratio of 50% immunogen in PBS to 50% Freund's Complete Adjuvant (Sigma, Product Number F5881) and emulsified by repeatedly passing the mixture through a tip on the end of a 1 ml syringe, until semi-solid. The emulsified mixture (1 ml) was injected intramuscularly into the sheep (the primary immunisation dose). Further injections (boosts) were prepared (1 mg of immunogen is prepared in PBS and mixed at a ratio of 50% immunogen PBS/50% Freunds Incomplete adjuvant, Sigma, Product Number—F5506) and injected (1 ml) intramuscularly at monthly intervals. Serum was sampled monthly by collection of whole blood from the jugular vein for evaluation of the antibody titre. Prior to immobilisation on a solid substrate (for example, the biochip), the serum was purified using caprylic acid/ammonium sulphate precipitation, as described for example in Chapter 4 of “Making and Using Antibodies—A Practical Handbook” 2nd Edition, edited by G C Howard and M R Kaser, CRC Press.
The ELISA data provided below correspond to the same immunogen, antibody and tracer combination used to generate the Biochip standard curves, i.e. antibodies of the invention (antisera generated in response to immunogen of Example 5) and (2-(4-aminophenyl)-2-(piperidin-2-yl) acetic acid conjugated to HRP (Example 6). The assay methodology used to generate the ELISA data was standard ELISA methodology. Briefly, a microtitre plate was coated with Ig fraction of the antiserum produced at 5 μg/ml, prepared in Tris buffer, pH8.5. The coated plate was simultaneously incubated with calibrator/sample (from 0 ng/ml-80 ng/ml) and HRP conjugate at ⅛K dilution. After washing and substrate addition, absorbances were read at 450 nm. The absorbance in each well was inversely proportional to the concentration of ritalinic acid or methylphenidate hydrochloride in the calibrator/sample added to that well.

[5] = Methylphenidate calibrator 78.13 ng/ml
[6] = Methylphenidate calibrator 156.25 ng/ml
[7] = Methylphenidate calibrator 312.50 ng/ml
[8] = Methylphenidate calibrator 625 ng/ml
[9] = Methylphenidate calibrator 1,250.00 ng/ml
[10] = Methylphenidate calibrator 2,500.00 ng/ml
[11] = Methylphenidate calibrator 5,000.00 ng/ml
[12] = Methylphenidate calibrator 10,000.00 ng/ml

CNCCC=C1c2ccccc2CCc2ccccc21 [Nortriptylene]
No measurable CR at given concentration [1]: 10 µg/mL

CNCCC[C@@]1(c2ccc(F)cc2)OCc2cc(C#N)ccc21 [N-desmethylescilatopram]
No measurable CR at given concentration [1]: 10 µg/mL

COC(=O)C(c1ccccc1)C1CCCCN1 (stereo not drawn) [Methylphenidate, methylphenidate]
B/B0 % [1, 5]: 87% | RLU [1, 5]: 3878 RLU | B/B0 % [1, 6]: 81% | RLU [1, 6]: 3604 RLU | B/B0 % [1, 7]: 75% | RLU [1, 7]: 3319 RLU | B/B0 % [1, 8]: 66% | RLU [1, 8]: 2912 RLU | B/B0 % [1, 9]: 51% | RLU [1, 9]: 2244 RLU | B/B0 % [1, 10]: 34% | RLU [1, 10]: 1517 RLU | B/B0 % [1, 11]: 23% | RLU [1, 11]: 1015 RLU | B/B0 % [1, 12]: 16% | RLU [1, 12]: 697 RLU | Cross-reactivity [1]: Cross-reactivity 0.4% | IC50 [1]: IC50 = 1,323.50 ng/ml | IC50 [2]: 2.6 ng/mL (≈ 0.0111 µM) | % cross reactivity [2]: 100%

O=C(O)C(c1ccccc1)C1CCCCN1 (stereo not drawn) [RA, ritalinic acid]
B/B0 % ([1]; RA calibrator 3.91 ng/ml): 65% | RLU ([1]; RA calibrator 3.91 ng/ml): 3459 RLU | B/B0 % ([1]; RA calibrator 7.81 ng/ml): 40% | RLU ([1]; RA calibrator 7.81 ng/ml): 2552 RLU | B/B0 % ([1]; RA calibrator 15.63 ng/ml): 31% | RLU ([1]; RA calibrator 15.63 ng/ml): 1980 RLU | B/B0 % ([1]; RA calibrator 31.25 ng/ml): 18% | RLU ([1]; RA calibrator 31.25 ng/ml): 1111 RLU | B/B0 % ([1]; RA calibrator 62.50 ng/ml): 11% | RLU ([1]; RA calibrator 62.50 ng/ml): 677 RLU | B/B0 % ([1]; RA calibrator 125.00 ng/ml): 6% | RLU ([1]; RA calibrator 125.00 ng/ml): 374 RLU | B/B0 % ([1]; RA calibrator 250.00 ng/ml): 4% | RLU ([1]; RA calibrator 250.00 ng/ml): 247 RLU | B/B0 % ([1]; RA calibrator 500.00 ng/ml): 2% | RLU ([1]; RA calibrator 500.00 ng/ml): 134 RLU | Cross-reactivity [1]: Cross-reactivity 100% | IC50 [1]: IC50 = 5.21 ng/ml, | IC50 [2]: 260 ng/mL (≈ 1.19 µM) | % cross reactivity [2]: 1% | % cross reactivity ([2]; listed as ritalinic acid): 1.0% | Cross-reactivity [3]: less than 0.9% | IC50 [4]: 8.41 ng/mL | Ave OD ([4]; calibrator 1.25 ng/ml): 1.346 | Ave OD ([4]; calibrator 2.5 ng/ml): 1.169 | Ave OD ([4]; calibrator 5 ng/ml): 0.987 | Ave OD ([4]; calibrator 10 ng/ml): 0.751 | Ave OD ([4]; calibrator 20 ng/ml): 0.584 | Ave OD ([4]; calibrator 40 ng/ml): 0.424 | Ave OD ([4]; calibrator 80 ng/ml): 0.311 | B/Bo ([4]; calibrator 1.25 ng/ml): 82.4 | B/Bo ([4]; calibrator 2.5 ng/ml): 71.5 | B/Bo ([4]; calibrator 5 ng/ml): 60.4 | B/Bo ([4]; calibrator 10 ng/ml): 46.0 | B/Bo ([4]; calibrator 20 ng/ml): 35.7 | B/Bo ([4]; calibrator 40 ng/ml): 26.0 | B/Bo ([4]; calibrator 80 ng/ml): 19.0 | % CR [4]: 100%

N[C@H]1CC[C@@H](c2ccc(Cl)c(Cl)c2)c2ccccc21 [Norsertraline]
No measurable CR at given concentration [1]: 10 µg/mL

COC(=O)C(c1ccccc1)C1CCCCN1 (stereo not drawn) [Methylphenidate Hydrochloride]
IC50 [4]: >>>80 ng/ml | Ave OD ([4]; calibrator 1.25 ng/ml): 1.677 | Ave OD ([4]; calibrator 2.5 ng/ml): 1.644 | Ave OD ([4]; calibrator 5 ng/ml): 1.635 | Ave OD ([4]; calibrator 10 ng/ml): 1.563 | Ave OD ([4]; calibrator 20 ng/ml): 1.476 | Ave OD ([4]; calibrator 40 ng/ml): 1.402 | Ave OD ([4]; calibrator 80 ng/ml): 1.311 | B/Bo ([4]; calibrator 1.25 ng/ml): 101.9 | B/Bo ([4]; calibrator 2.5 ng/ml): 99.9 | B/Bo ([4]; calibrator 5 ng/ml): 99.4 | B/Bo ([4]; calibrator 10 ng/ml): 95.0 | B/Bo ([4]; calibrator 20 ng/ml): 89.7 | B/Bo ([4]; calibrator 40 ng/ml): 85.2 | B/Bo ([4]; calibrator 80 ng/ml): 79.7 | % CR [4]: <<<10.5%

CCOC(=O)C(c1ccccc1)C1CCCCN1 (stereo not drawn) [Ethylphenidate]
No measurable CR at given concentration [1]: 100 µg/mL

COc1cccc(C2(O)CCCCC2CN(C)C)c1 (stereo not drawn) [Tramadol]
No measurable CR at given concentration [1]: 10 µg/mL

CCO[C@@H]1O[C@H](C(=O)O)[C@@H](O)[C@H](O)[C@H]1O [Ethyl glucuronide]
No measurable CR at given concentration [1]: 100 µg/mL | Concentration exhibiting no cross-reactivity [2]: 100 µg/mL

Clc1cccc(N2CCNCC2)c1 [mCPP]
No measurable CR at given concentration [1]: 10 µg/mL

O=C(O)c1ccccc1O [Salicylic acid]
No measurable CR at given concentration [1]: 1000 µg/mL | Concentration exhibiting no cross-reactivity [2]: 1000 µg/mL

CC(C)Cc1ccc(C(C)C(=O)O)cc1 (stereo not drawn) [Ibuprofen]
No measurable CR at given concentration [1]: 1000 µg/mL | Concentration exhibiting no cross-reactivity ([2]; listed as ibuprofen): 1000 µg/mL

Dextromorphan
No measurable CR at given concentration [1]: 10 µg/mL

CC(=O)Nc1ccc(O)cc1 [Acetoaminophen]
No measurable CR at given concentration [1]: 1000 µg/mL | Concentration exhibiting no cross-reactivity [2]: 2500 µg/mL

COc1cccc(C2(O)CCCCC2CN)c1.Cl (racemic) [rac N-bisdesmethyl tramadol HCl]
Concentration exhibiting no cross-reactivity [2]: 0.18 µg/mL

COc1cccc(C2(O)CCCCC2CN(C)C)c1 (stereo not drawn) [tramadol HCl]
Concentration exhibiting no cross-reactivity [2]: 10 µg/mL

CNCCC(Oc1ccc(C(F)(F)F)cc1)c1ccccc1 (stereo not drawn) [fluoxetine]
No measurable CR at given concentration [1]: 100 µg/mL

CCC(=O)C(CC(C)N(C)C)(c1ccccc1)c1ccccc1 (stereo not drawn) [methadone]
Concentration exhibiting no cross-reactivity [2]: 10 µg/mL

O=C(CCCN1CCC(O)(c2ccc(Cl)cc2)CC1)c1ccc(F)cc1 [Haloperidol]
No measurable CR at given concentration [1]: 10 µg/mL | Concentration exhibiting no cross-reactivity [2]: 10 µg/mL

CC(C(=O)O)c1ccc(CC(C)(C)O)cc1 (racemic) [rac-2-hydroxy ibuprofen]
Concentration exhibiting no cross-reactivity [2]: 125 µg/mL
